This is an account of results in patent US20030220396A1, “Method for treating ocular hypertension and glaucoma” (SUCAMPO AG, priority 2002, published 2003).

Holding throughout (type): in vivo
The subject of experiment [1] is intraocular pressure (IOP). In words: IOP lowering after instillation of ophthalmic solution in cynomolgus monkeys (Example 2). The conditions noted are these: for ΔIOP · AUC0-24 h Mean ± S.E.: 0.001 w/v% solution, 30 μL/eye, in mmHg·h (unit assumed). As to the method: (§1) In the following examples, the osmolarity was measured by means of OSMOMETER (Model OM-801, VOGEL) at room temperature.
Three kinds of ophthalmic solutions each containing 0.001 w/v% of test substance 1 were prepared and used. The osmolarity ratio of the solutions were adjusted to 0.8 (osmolarity: 229 mOsm), 1.0 (osmolarity: 286 mOsm) and 1.3 (osmolarity: 372 mOsm) respectively. Eight cynomolgus monkeys were used for this example. Test solutions were instilled to the monkey in the same manner as Example 1, i.e. 30 μL/eye of each solution was serially instilled to same eye with one-week intervals between the instillations.

The subject of experiment [2] is intraocular pressure (IOP). Nature of the experiment: IOP lowering after instillation of ophthalmic solution in cynomolgus monkeys (Example 1). The conditions noted are these: for ΔIOP · AUC0-24 h Mean ± S.E.: 0.001 w/v% solution, 30 μL/eye. The method, then:
as §1
Two kinds of test ophthalmic solutions each containing 0.001 w/v% of test substance 1 (13,14-dihydro-15-keto-17-phenyl-18,19,20-trinor-PGF2αisopropyl ester), which is 15-keto-prostaglandin compound having a ring structure at the end of the ω chain were prepared. The osmolarity ratio of one solution was adjusted to 0.7 (osmolarity: 200 mOsm) and the other was adjusted to 1.0 (osmolarity: 286 mOsm). Nine cynomolgus monkeys were used for the example. One of the test solutions was instilled (30 μL/eye) into one eye of the monkey, and one week after, the other test solution was instilled (30 μL/eye) into the same eye.

For experiment [3], the system named is intraocular pressure (IOP). Nature of the experiment: IOP lowering after instillation of ophthalmic solution in white rabbit (Comparative Example). To be noted: for ΔIOP · AUC0-6 h Mean ± S.E.: 0.05 w/v% solution, 35 μL/eye, in mmHg·h (unit assumed). As to the method:
as §1
Three kinds of ophthalmic solutions each containing 0.05 w/v% of test substance 2 (13,14-dihydro-15-keto-20-ethyl-PGF2αisopropyl ester), which is a 15-keto-prostaglandin compound having a linear structure at the end of the ω chain, were prepared and used. The osmolarity ratio of the solutions were adjusted to 0.3 (osmolarity: 86 mOsm), 0.7 (osmolarity: 200 mOsm) and 1.0 (osmolarity: 286 mOsm), respectively. Each of the test solutions (35 μL/eye) was instilled serially into one eye of a white rabbit with one-week intervals between the installations.

[4] abbreviates: osmolarity ratio 1.0 (286 mOsm).

Take `CC(C)OC(=O)CCC/C=C\C[C@@H]1[C@@H](CCC(=O)CCc2ccccc2)[C@H](O)C[C@@H]1O` [Test Substance 1, 13,14-dihydro-15-keto-17-phenyl-18,19,20-trinor-PGF2αisopropyl ester]: the “ΔIOP · AUC0-24 h Mean ± S.E.” value in experiment [1] (osmolarity ratio 0.8 (229 mOsm)) was 41.1 ± 18.7; in experiment [1] (setting [4]), 62.3 ± 19.3; in experiment [1] (osmolarity ratio 1.3 (372 mOsm)) it was 37.9 ± 14.8; in experiment [2] (osmolarity ratio 0.7 (200 mOsm), in mmHg·h (unit assumed)) it was 22.8 ± 11.8; in experiment [2] (osmolarity ratio 1.0 (286 mOsm), p < 0.05 vs ratio 0.7, in mmHg·h (unit assumed)), 55.1 ± 10.7. The “IOP lowering effect, comparison in words” value in experiment [1] (osmolarity ratio 1.0 compared with osmolarity ratio 0.8 and 1.3, 0.001 w/v%) is recorded as “greater IOP lowering effect”; in experiment [2] (osmolarity ratio 1.0 compared with osmolarity ratio 0.7, 0.001 w/v%), “significantly greater IOP lowering effect”.

`CCCCCCCC(=O)CC[C@@H]1[C@@H](C/C=C\CCCC(=O)OC(C)C)[C@@H](O)C[C@H]1O` [Test Substance 2, 13,14-dihydro-15-keto-20-ethyl-PGF2αisopropyl ester]: the “ΔIOP · AUC0-6 h Mean ± S.E.” value in experiment [3] (osmolarity ratio 0.3 (86 mOsm)) worked out at 18.9 ± 4.4; in experiment [3] (osmolarity ratio 0.7 (200 mOsm)) it was 22.5 ± 5.1; in experiment [3] (setting [4]), 20.3 ± 4.6. Moreover, the “IOP lowering effect, comparison in words” value in experiment [3] (osmolarity ratio 0.3, 0.7 and 1.0 compared, 0.05 w/v%) is reported as “substantially the same IOP lowering effect”.
